ChEMBL document CHEMBL1149404, “Design and synthesis of substituted phenylpropanoic acid derivatives as human peroxisome proliferator-activated receptor alpha/delta dual agonists” (Bioorg Med Chem Lett, 2006)

Tests used:
[1] = molecular target: T1, Peroxisome proliferator-activated receptor delta (Homo sapiens, UniProt Q03181); assay: Agonist activity at PPARdelta transfected in HEK293 cells; assay type: functional, cell-based
T1 sequence (Q03181 whole entry): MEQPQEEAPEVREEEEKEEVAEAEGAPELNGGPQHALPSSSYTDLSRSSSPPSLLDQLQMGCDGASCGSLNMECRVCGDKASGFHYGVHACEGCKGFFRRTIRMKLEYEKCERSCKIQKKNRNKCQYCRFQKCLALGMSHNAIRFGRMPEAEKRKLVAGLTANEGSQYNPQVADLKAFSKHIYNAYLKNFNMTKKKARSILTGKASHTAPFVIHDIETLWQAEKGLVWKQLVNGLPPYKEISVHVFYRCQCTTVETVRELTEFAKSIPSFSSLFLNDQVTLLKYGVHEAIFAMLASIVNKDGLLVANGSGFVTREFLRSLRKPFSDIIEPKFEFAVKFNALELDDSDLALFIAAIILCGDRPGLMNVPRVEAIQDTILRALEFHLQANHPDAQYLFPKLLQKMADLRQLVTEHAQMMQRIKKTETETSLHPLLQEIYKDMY

[2] = molecular target: T2, Peroxisome proliferator-activated receptor alpha (Homo sapiens, UniProt Q07869); assay: Agonist activity at PPARalpha transfected in HEK293 cells; assay type: functional, cell-based
T2 sequence (Q07869 whole entry): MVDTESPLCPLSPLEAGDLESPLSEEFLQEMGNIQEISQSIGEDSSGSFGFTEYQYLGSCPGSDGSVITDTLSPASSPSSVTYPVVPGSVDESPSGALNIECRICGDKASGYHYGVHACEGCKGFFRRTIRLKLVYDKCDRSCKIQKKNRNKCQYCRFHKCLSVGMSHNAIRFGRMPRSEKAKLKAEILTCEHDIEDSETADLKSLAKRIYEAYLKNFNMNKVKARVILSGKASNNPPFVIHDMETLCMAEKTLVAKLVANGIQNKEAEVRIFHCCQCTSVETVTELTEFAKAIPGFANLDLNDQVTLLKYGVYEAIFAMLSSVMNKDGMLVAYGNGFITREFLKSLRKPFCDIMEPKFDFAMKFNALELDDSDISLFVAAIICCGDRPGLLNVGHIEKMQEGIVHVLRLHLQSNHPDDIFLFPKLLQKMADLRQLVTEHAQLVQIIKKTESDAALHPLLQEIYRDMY

[3] = molecular target: T3, Peroxisome proliferator-activated receptor gamma (Homo sapiens, UniProt P37231); assay: Agonist activity at PPARgamma transfected in HEK293 cells; assay type: functional, cell-based
T3 sequence (P37231 whole entry): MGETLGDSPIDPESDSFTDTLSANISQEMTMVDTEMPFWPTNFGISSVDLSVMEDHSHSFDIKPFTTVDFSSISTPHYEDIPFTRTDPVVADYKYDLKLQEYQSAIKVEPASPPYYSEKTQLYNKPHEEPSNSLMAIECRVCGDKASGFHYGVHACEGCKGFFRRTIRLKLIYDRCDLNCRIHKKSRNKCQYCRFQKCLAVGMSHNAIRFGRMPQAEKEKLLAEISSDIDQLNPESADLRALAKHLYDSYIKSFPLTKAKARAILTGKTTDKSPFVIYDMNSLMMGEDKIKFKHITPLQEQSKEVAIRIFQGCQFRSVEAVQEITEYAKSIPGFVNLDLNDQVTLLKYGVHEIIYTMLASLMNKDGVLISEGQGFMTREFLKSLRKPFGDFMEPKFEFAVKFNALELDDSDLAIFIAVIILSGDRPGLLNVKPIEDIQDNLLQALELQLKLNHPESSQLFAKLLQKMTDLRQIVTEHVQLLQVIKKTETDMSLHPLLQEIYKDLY

[4] = molecular target: T1, Peroxisome proliferator-activated receptor delta; assay: Agonist activity at PPARdelta transfected in HEK293 cells at 1 uM; assay type: functional, cell-based
[5] = molecular target: T2, Peroxisome proliferator-activated receptor alpha; assay: Agonist activity at PPARalpha transfected in HEK293 cells at 1 uM; assay type: functional, cell-based
[6] = molecular target: T3, Peroxisome proliferator-activated receptor gamma; assay: Agonist activity at PPARgamma transfected in HEK293 cells at 1 uM; assay type: functional, cell-based
[7] = molecular target: Peroxisome proliferator-activated receptor alpha (Homo sapiens, UniProt Q07869, I272F); assay: Agonist activity at human PPARalpha containing mutant I272F domain transfected in HEK293 cells
[8] = molecular target: T4, Peroxisome proliferator-activated receptor delta (Mus musculus, UniProt P35396); assay: Agonist activity at mouse PPARdelta transfected in HEK293 cells; assay type: functional, cell-based
T4 sequence (P35396 whole entry): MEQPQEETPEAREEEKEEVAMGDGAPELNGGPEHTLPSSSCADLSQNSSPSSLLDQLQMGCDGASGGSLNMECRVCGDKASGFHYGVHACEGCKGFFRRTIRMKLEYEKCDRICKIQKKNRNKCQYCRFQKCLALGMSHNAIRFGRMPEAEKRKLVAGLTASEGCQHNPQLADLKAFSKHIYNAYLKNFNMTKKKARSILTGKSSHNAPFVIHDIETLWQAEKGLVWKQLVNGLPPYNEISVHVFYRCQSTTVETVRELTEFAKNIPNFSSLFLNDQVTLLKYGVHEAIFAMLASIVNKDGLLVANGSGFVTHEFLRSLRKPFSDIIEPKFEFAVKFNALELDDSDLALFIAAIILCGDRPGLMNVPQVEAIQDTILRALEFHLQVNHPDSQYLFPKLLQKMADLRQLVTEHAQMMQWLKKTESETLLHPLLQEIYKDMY

[9] = molecular target: T5, Peroxisome proliferator-activated receptor alpha (Mus musculus, UniProt P23204); assay: Agonist activity at mouse PPARalpha transfected in HEK293 cells; assay type: functional, cell-based
T5 sequence (P23204 whole entry): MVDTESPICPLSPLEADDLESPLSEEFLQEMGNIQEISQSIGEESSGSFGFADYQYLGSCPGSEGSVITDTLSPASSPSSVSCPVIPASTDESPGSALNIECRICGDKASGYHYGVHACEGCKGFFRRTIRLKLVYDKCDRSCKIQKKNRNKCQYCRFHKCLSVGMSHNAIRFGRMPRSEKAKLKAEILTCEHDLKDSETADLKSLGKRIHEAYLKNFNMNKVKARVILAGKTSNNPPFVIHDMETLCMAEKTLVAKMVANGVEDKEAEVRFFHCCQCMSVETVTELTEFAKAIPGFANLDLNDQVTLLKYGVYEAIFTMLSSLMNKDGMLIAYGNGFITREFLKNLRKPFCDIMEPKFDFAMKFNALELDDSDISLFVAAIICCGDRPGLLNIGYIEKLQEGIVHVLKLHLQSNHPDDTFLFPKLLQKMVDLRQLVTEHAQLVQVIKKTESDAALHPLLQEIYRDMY

Sequence of Peroxisome proliferator-activated receptor alpha (Homo sapiens, UniProt Q07869, I272F) (Q07869 whole entry I272F, the tested form may be a part): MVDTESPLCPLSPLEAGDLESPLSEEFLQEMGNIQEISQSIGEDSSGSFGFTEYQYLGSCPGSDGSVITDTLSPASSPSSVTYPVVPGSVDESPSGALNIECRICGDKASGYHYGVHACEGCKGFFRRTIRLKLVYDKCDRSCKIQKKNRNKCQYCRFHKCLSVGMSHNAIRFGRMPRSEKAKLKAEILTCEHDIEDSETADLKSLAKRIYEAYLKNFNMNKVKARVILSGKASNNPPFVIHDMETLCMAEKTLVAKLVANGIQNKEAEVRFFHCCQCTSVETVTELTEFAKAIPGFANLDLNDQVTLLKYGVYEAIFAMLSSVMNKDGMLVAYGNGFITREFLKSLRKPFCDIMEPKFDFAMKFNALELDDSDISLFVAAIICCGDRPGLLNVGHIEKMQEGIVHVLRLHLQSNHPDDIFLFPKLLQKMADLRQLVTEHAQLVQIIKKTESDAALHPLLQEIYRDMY

| EC50 [1] [nM] | EC50 [2] [nM] | EC50 [3] [nM] | SMILES | also measured |
| --- | --- | --- | --- | --- |
| 130 | 10 | 2000 | CCC(Cc1ccc(OC)c(CNC(=O)c2ccc(C(F)(F)F)cc2)c1)C(=O)O (stereo not drawn) | – |
| – | – | – | CCC(Cc1ccc(F)c(C(=O)NCc2ccc(C(F)(F)F)cc2)c1)C(=O)O (stereo not drawn) | EC50 [4]: Not Active; EC50 [5]: Not Active; EC50 [6]: Not Active |
| 500 | 25 | 1600 | CCC(Cc1ccc(OC)c(C(=O)NCc2ccc(C(F)(F)F)c(F)c2)c1)C(=O)O (stereo not drawn) | – |
| 1000 | 20 | 500 | CCC(Cc1ccc(OC)c(C(=O)NCc2ccc(C(F)(F)F)cc2F)c1)C(=O)O (stereo not drawn) | – |
| 40 | 10 | – | CC[C@@H](Cc1ccc(OC)c(CNC(=O)c2ccc(C(F)(F)F)c(F)c2)c1)C(=O)O | EC50 [7]: 630 nM; EC50 [8]: 130 nM; EC50 [9]: 1000 nM |
| – | – | > 10000 | CCC(Cc1ccc(OC)c(CNC(=O)c2ccc(F)c(C(F)(F)F)c2)c1)C(=O)O (stereo not drawn) | – |
| 700 | 70 | – | CCC(Cc1ccc(OC)c(C(=O)NCc2ccc(C(F)(F)F)cc2)c1)C(=O)O (racemic) | – |

| SMILES | EC50 [1] [nM] | EC50 [2] [nM] | EC50 [3] [nM] | also measured |
| --- | --- | --- | --- | --- |
| CC[C@H](Cc1ccc(OC)c(CNC(=O)c2ccc(C(F)(F)F)c(F)c2)c1)C(=O)O | 700 | 180 | > 10000 | – |
